Measurements taken from US12570612B2, “Substituted nitrogen heterocyclic compound and anesthetic effect thereof” (priority 2019, dated 2026).
“Also recorded” adds a separate entry of the source. Read-outs that look alike come from different tables or passages of the source. Marks after values point to notes of the source that are not given here.

Columns and labels:
Sprague-Dawley rats [1] = assay: animal or person
Method: (§1) Adult male Sprague-Dawley rats (250-300 g) were selected for the experiment. […] The anesthesia effects of the compounds were assessed in rats using a LORR assay and a period >30 s was considered as an indicator of general anesthesia.

Sprague-Dawley rats [2] = assay: Pharmacological characteristics at equivalent doses (2ED50), Group A compounds; type: in vivo; details: 2ED50, tail vein
H295R cell line [3] = assay: Adrenocortical function in vitro test: secretion of cortisol and corticosterone, Group A compounds; type: cell-based; details: H295 cells; for EC50: 0.1-10000 nM, HPLC-MS/MS
Sprague-Dawley rats [4] = assay: animal or person; remark: listed apart in the source
Method: as §1

H295R cell line [5] = assay: Adrenocortical function in vitro test: secretion of cortisol and corticosterone, Group B compounds; type: cell-based; details: H295R cells; for EC50: 0.1-10000 nM, HPLC-MS/MS
[6] = test system: circulatory function of rats; details: rat, in vivo
Method: First, animal models were established. […] At least one week after surgery, data were recorded.
Finally, the pharmacological effects, adverse reactions, and behavioral manifestations of the rats were observed and recorded
After data acquisition, the test was stopped.

Sprague-Dawley rats [7] = assay: animal or person; type: in vivo
Description: (§2) Evaluating indicator: The end point of anesthesia: LORR was used as the end point of anesthesia; General anesthesia effect: the disappearance of forepaw righting reflex in rats lasting for 30 seconds is taken as the index of general anesthesia effect; Anesthesia recovery index: the recovery of rat forepaw righting reflex was used as the index of anesthesia recovery.

Sprague-Dawley rats [8] = assay: Pharmacological effect and adverse reactions under the equivalent dose (2ED50), Group C compounds; type: in vivo
Description: (§3) Evaluation index: onset time: from the completion of drug injection to the disappearance of forepaw righting reflex in rats; Duration of anesthesia: the time from the disappearance of rat forepaw righting reflex to the recovery of rat forepaw righting reflex; Recovery time of anesthesia: the time from the […] to complete recovery;

Sprague-Dawley rats [9] = assay: animal or person; type: in vivo; remark: listed apart in the source
Description: as §2, with “the disappearance of forepaw righting reflex (lorr)” for “LORR”

Sprague-Dawley rats [10] = assay: Pharmacological effect and adverse reactions under the equivalent dose (2ED50), Group D compounds; type: in vivo
Description: as §3

[11] = test system: circulatory function of rats; details: rat, in vivo; remark: listed apart in the source
[12] = test system: circulatory function of rats; assay: Circulatory function of rats (MAP, HR) by implanted telemetry, Group C compounds; details: 2ED50, rats, FIG. 13-16
Description: (§4) First, the animal model was established, and the left ventricular catheter, abdominal aorta catheter and electrocardiogram wire were placed. At least one week after the operation, the signal can be collected to start the test. At the beginning of the experiment, after the placement of the indwelling needle in the tail vein of rats, connect the extension tube, put the rats together with the feeding cage on the signal receiver and start collecting data. […] All compounds or drugs were given at a constant volume of 0.6 ml at a uniform rate of 0.1 ml/s.

[13] = test system: circulatory function of rats; assay: Circulatory function of rats (MAP, HR) by implanted telemetry, Group D compounds; details: 2ED50, rats, FIG. 19-22
Description: as §4
Evaluation indexes: Collect the blood pressure, heart rate and other data of rats during and 15 minutes after administration, and judge the effect of the compound of the invention on the circulatory function of rats with the indexes of mean arterial pressure (MAP) and heart rate (HR).

Sprague-Dawley rats [14] = test system: Sprague-Dawley rats
Method: Adult male Sprague-Dawley rats with body weight ranging from 250 to 300 gm were selected for continuous infusion test. […] Time to recovery of righting reflex from stopping infusion, and time to fully awake from stopping infusion were recorded.

Sprague-Dawley rats [15] = assay: Continuous infusion at 2 times the MIR for 1 hour, Group B compounds; type: in vivo
SD rats [16] = test system: SD rats
Method: Experimental Methods: Adult male SD rats with body weight ranging from 250 g to 350 g were selected for continuous infusion test.
Evaluation indexes: the time from the beginning of continuous infusion to the […] of sedation in rats; the time from the cessation of infusion to the restoration of the forepaw turning reflex after 1 hour of continuous infusion; the time from the cessation of infusion to the complete restoration of rats after 1 hour of continuous infusion.

SD rats [17] = test system: SD rats; remark: listed apart in the source
Outline: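 Adult male SD rats (250–350 g) received continuous infusion. Read-outs: time from infusion start to […]; after 1 h infusion, time from stop to return of forepaw turning reflex and to full recovery.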

Sprague-Dawley rats [18] = type: in vivo; details: tail vein
Sprague-Dawley rats [19] = type: in vivo; details: tail vein; remark: listed apart in the source
[20] = male, Sprague-Dawley, rat, in vivo
[21] = LORR in rats, tail vein, brackets = 95% confidence limit
[22] = read-out: EC50 (Corticosterone)
[23] = continuous infusion 2 x MIR 1 hour, rats affected/rats
[24] = LORR, up and down method, tail vein, rats, brackets = 95% confidence limit
[25] = 2ED50, tail vein, rats, n=8, unit s
[26] = equivalent dose (2ED50), number of rats of n = 8
[27] = after 1 hour continuous infusion at 2 times the MIR, SD rats
[28] = continuous tail vein infusion at 2 times the MIR, SD rats
[29] = equivalent dose (2 × ED50), number of rats of n = 8

CC(C)c1cccc(C(C)C)c1O [Propofol, propofol, reference compound]
ED50 (Sprague-Dawley rats [1]; Rattus norvegicus): 5.51 mg/kg
Minimal lethal dose (Sprague-Dawley rats [1]; [20]): 28 mg/kg
Approximate therapeutic index (Sprague-Dawley rats [1]; rats): 5
Onset time (Sprague-Dawley rats [2]): 0.19 ± 0.03 min
Righting reflex duration (Sprague-Dawley rats [2]): 8.36 ± 2 min
Types and incidence of adverse reactions (Sprague-Dawley rats [2]; (animals affected/animals)): Intermittent Tremor(6/8),; also recorded: Bucking (5/8),; also recorded: Tongue stretching(4/8),; also recorded: Forelimb rigidity (2/8),; also recorded: Hindlimb rigidity(2/8)
Corticosterone as an indicator to determine the presence of inhibition (H295R cell line [3]): 0
Cortisol as an indicator to determine the presence of inhibition (H295R cell line [3]): 0
EC50 (H295R cell line [3]; Homo sapiens, read-out: EC50 (Corticosterone)): > 10 µM
EC50 (H295R cell line [3]; Homo sapiens, read-out: EC50 (Cortisol)): > 10 µM
ED50 (Sprague-Dawley rats [4]; Rattus norvegicus): 5.51 mg/kg
Minimal lethal dose (Sprague-Dawley rats [4]; [20]): 28 mg/kg
Approximate therapeutic index (Sprague-Dawley rats [4]; rats): 5
Corticosterone as an indicator to determine the presence of inhibition (H295R cell line [5]): 0
Cortisol as an indicator to determine the presence of inhibition (H295R cell line [5]): 0
EC50 (H295R cell line [5]; Homo sapiens, NCI-H295R, read-out: EC50 (Corticosterone)): > 10 µM
EC50 (H295R cell line [5]; Homo sapiens, NCI-H295R, read-out: EC50 (Cortisol)): > 10 µM
inhibitory effect on the circulatory function (MAP, HR) [6]: significant inhibition of the circulatory function
ED50 (Sprague-Dawley rats [7]; Rattus norvegicus): 5.01 mg/kg
Minimal lethal dose (Sprague-Dawley rats [7]; [20]): 22.6 mg/kg
Approximate therapeutic index (Sprague-Dawley rats [7]; rats): 4.0
Adverse reaction: Convulsions (Sprague-Dawley rats [8]; rat, in vivo): 0
Adverse reaction: Cough, broken-winded (Sprague-Dawley rats [8]; rat, in vivo): 0
Adverse reaction: Euphoria (Sprague-Dawley rats [8]; rat, in vivo): 0
Adverse reaction: Slower breathing, Tetany convulsion (Sprague-Dawley rats [8]; rat, in vivo): 2
Adverse reaction: Systemic stiffness, Convulsions, Opisthotonus (Sprague-Dawley rats [8]; rat, in vivo): 0
Adverse reaction: Tongue stretching (Sprague-Dawley rats [8]; rat, in vivo): 0
Adverse reaction: Tremor (Sprague-Dawley rats [8]; rat, in vivo): 0
Adverse reaction: the four limbs rigidity (Sprague-Dawley rats [8]; rat, in vivo): 2
Onset time (Sprague-Dawley rats [8]; rat, in vivo): <30 s
Righting reflex duration (Sprague-Dawley rats [8]; rat, in vivo): 8.53 ± 1.52 min
Sedation duration (Sprague-Dawley rats [8]; rat, in vivo): 14.77 ± 3.50 min
ED50 (Sprague-Dawley rats [9]; Rattus norvegicus): 5.01 mg/kg
Minimal lethal dose (Sprague-Dawley rats [9]; [20]): 22.6 mg/kg
Approximate therapeutic index (Sprague-Dawley rats [9]; rats): 4.0
Adverse reaction: Convulsions (Sprague-Dawley rats [10]; rat, in vivo): 0
Adverse reaction: Cough, broken-winded (Sprague-Dawley rats [10]; rat, in vivo): 0
Adverse reaction: Euphoria (Sprague-Dawley rats [10]; rat, in vivo): 0
Adverse reaction: Four limbs rigidity (Sprague-Dawley rats [10]; rat, in vivo): 1
Adverse reaction: Slower breathing, Tetany convulsion (Sprague-Dawley rats [10]; rat, in vivo): 2
Adverse reaction: Systemic stiffness, Convulsions, Opisthotonus (Sprague-Dawley rats [10]; rat, in vivo): 0
Adverse reaction: Tongue stretching (Sprague-Dawley rats [10]; rat, in vivo): 0
Adverse reaction: Tremor (Sprague-Dawley rats [10]; rat, in vivo): 2
Onset time (Sprague-Dawley rats [10]; rat, in vivo): <30 s
Righting reflex duration (Sprague-Dawley rats [10]; rat, in vivo): 8.53 ± 1.52 min
Sedation duration (Sprague-Dawley rats [10]; rat, in vivo): 14.77 ± 3.50 min
inhibitory effect on the circulatory function (MAP, HR) [11]: significant inhibition of the circulatory function
effect on the circulatory function (MAP, HR) [12]: significant inhibition on the circulatory system function
effect on the circulatory function (MAP, HR) [13]: significant inhibition on the circulatory system function

COC(=O)C1(OC(=O)c2cncn2[C@H](C)c2ccccc2)CC1 [CPMM, cyclopropyl methoxycarbonyl metamidate, reference compound]
ED50 (Sprague-Dawley rats [1]; [21]): 0.78(0.74-0.82)* mg/kg
Approximate therapeutic index (Sprague-Dawley rats [1]; rats): >10
Minimal lethal dose (Sprague-Dawley rats [1]; rats): >7.8 mg/kg
Onset time (Sprague-Dawley rats [2]): 0.26 ± 0.08 min
Righting reflex duration (Sprague-Dawley rats [2]): 1.62 ± 0.63 min
Corticosterone as an indicator to determine the presence of inhibition (H295R cell line [3]): 1 (Mild inhibition (using CPMM as a control))
Cortisol as an indicator to determine the presence of inhibition (H295R cell line [3]): 1 (Mild inhibition (using CPMM as a control))
EC50 (H295R cell line [3]; [22]): > 0.1 µM
EC50 (H295R cell line [3]; read-out: EC50 (Cortisol)): > 0.01 µM
Recovery time after stopping infusion (Sprague-Dawley rats [14]; LORR maintained for 1 hour, 2 times the MIR): 7 to 8 min
Onset time (Sprague-Dawley rats [14]; continuous infusion, 2 times the MIR): 3 to 4 min
Types and incidence of adverse reactions (Sprague-Dawley rats [14]; continuous infusion, (animals affected/animals)): Convulsions(3/6),; also recorded: Tremor(5/6),; also recorded: Myoclonus(5/6),
ED50 (Sprague-Dawley rats [4]; [21]): 0.78(0.74-0.82)* mg/kg
Approximate therapeutic index (Sprague-Dawley rats [4]; rats): >10
Minimal lethal dose (Sprague-Dawley rats [4]; rats): >7.8 mg/kg
Corticosterone as an indicator to determine the presence of inhibition (H295R cell line [5]): 1 (Mild inhibition (using CPMM as a control))
Cortisol as an indicator to determine the presence of inhibition (H295R cell line [5]): 1 (Mild inhibition (using CPMM as a control))
EC50 (H295R cell line [5]; [22]): > 0.1 µM
EC50 (H295R cell line [5]; read-out: EC50 (Cortisol)): > 0.01 µM
inhibitory effect on the circulatory function (MAP, HR) [6]: almost no inhibitory effect on the circulatory function
Recovery time after stopping infusion (Sprague-Dawley rats [15]; after 1 hour continuous infusion at 2 times the MIR, rats): 7 to 8 min
Types and incidence of adverse reactions: Convulsions (Sprague-Dawley rats [15]; [23]): Convulsions (3/6), Tremor
Types and incidence of adverse reactions: Myoclonus (Sprague-Dawley rats [15]; [23]): (5/6), Myoclonus (5/6)
Types and incidence of adverse reactions: Tremor (Sprague-Dawley rats [15]; [23]): (5/6), Myoclonus (5/6)
Onset time (Sprague-Dawley rats [15]; continuous tail vein infusion at 2 times the MIR, emulsion, rats): 3 to 4 min
ED50 (Sprague-Dawley rats [7]; [24]): 0.49(0.45-0.53)* mg/kg
Approximate therapeutic index (Sprague-Dawley rats [7]; rats): 42.0
Righting reflex duration (Sprague-Dawley rats [8]; 2ED50, tail vein, rats, n=8): 2.71 ± 0.97 min
Sedation duration (Sprague-Dawley rats [8]; 2ED50, tail vein, rats, n=8): 8.48 ± 2.58 min
Onset time (Sprague-Dawley rats [8]; [25]): <30 s
Adverse reaction: Convulsions (Sprague-Dawley rats [8]; [26]): 0
Adverse reaction: Cough, broken-winded (Sprague-Dawley rats [8]; [26]): 0
Adverse reaction: Euphoria (Sprague-Dawley rats [8]; [26]): 0
Adverse reaction: Red urine (Sprague-Dawley rats [8]; [26]): 8
Adverse reaction: Slower breathing, Tetany convulsion (Sprague-Dawley rats [8]; [26]): 3
Adverse reaction: Systemic stiffness, Convulsions, Opisthotonus (Sprague-Dawley rats [8]; [26]): 0
Adverse reaction: Tongue stretching (Sprague-Dawley rats [8]; [26]): 4
Adverse reaction: Tremor (Sprague-Dawley rats [8]; [26]): 5
Adverse reaction: the four limbs rigidity (Sprague-Dawley rats [8]; [26]): 4
After the infusion is stopped: Righting reflex recovery time (SD rats [16]; [27]): 8 to 10 min
Recovery time after stopping infusion (SD rats [16]; [27]): 10 to 15 min
Types and incidence of adverse reactions: Hindlimb rigidity (SD rats [16]; [23]): Hindlimb rigidity(4/6)
Types and incidence of adverse reactions: Red urine (SD rats [16]; [23]): 6/6
Types and incidence of adverse reactions: Tremor (SD rats [16]; [23]): 4/6
Sedation onset time (SD rats [16]; [28]): <5 min
ED50 (Sprague-Dawley rats [9]; [24]): 0.49(0.45-0.53)* mg/kg
Approximate therapeutic index (Sprague-Dawley rats [9]; rats): 42.0
Righting reflex duration (Sprague-Dawley rats [10]; 2ED50, tail vein, rats, n=8): 2.71 ± 0.97 min
Sedation duration (Sprague-Dawley rats [10]; 2ED50, tail vein, rats, n=8): 8.48 ± 2.58 min
Onset time (Sprague-Dawley rats [10]; [25]): <30 s
Adverse reaction: Convulsions (Sprague-Dawley rats [10]; [29]): 0
Adverse reaction: Cough, broken-winded (Sprague-Dawley rats [10]; [29]): 0
Adverse reaction: Euphoria (Sprague-Dawley rats [10]; [29]): 0
Adverse reaction: Four limbs rigidity (Sprague-Dawley rats [10]; [29]): 2
Adverse reaction: Slower breathing, Tetany convulsion (Sprague-Dawley rats [10]; [29]): 0
Adverse reaction: Systemic stiffness, Convulsions, Opisthotonus (Sprague-Dawley rats [10]; [29]): 0
Adverse reaction: Tongue stretching (Sprague-Dawley rats [10]; [29]): 4
Adverse reaction: Tremor (Sprague-Dawley rats [10]; [29]): 2
After the infusion is stopped: Righting reflex recovery time (SD rats [17]; [27]): 8 to 10 min
Recovery time after stopping infusion (SD rats [17]; [27]): 10 to 15 min
Types and incidence of adverse reactions: Hindlimb rigidity (SD rats [17]; [23]): Hindlimb rigidity(4/6)
Types and incidence of adverse reactions: Red urine (SD rats [17]; [23]): 6/6
Types and incidence of adverse reactions: Tremor (SD rats [17]; [23]): 4/6
Sedation onset time (SD rats [17]; [28]): <5 min
Minimal lethal dose (Sprague-Dawley rats [18]): 20.6 mg/kg
Minimal lethal dose (Sprague-Dawley rats [19]): 20.6 mg/kg
